SMILES strings stand for the structures.

The text below walks through data of patent publication US20090317372A1, “SMALL MOLECULES FOR THE REDUCTION OF HIGH BLOOD GLUCOSE LEVEL” (priority 2008, published 2009).

Type in all cases: in vivo
Experiment [1] has as its system C57/BL/6 mice. Briefly: Glucose tolerance test with normal mice, CCcompound1 and sub-optimal insulin. The following applies: CCcompound1 4.5-mg/kg i.p. 60 min and/or insulin 0.02 IU 15 min prior to glucose. How it is done:
In this experiment, a sub-optimal dose of insulin (0.02 international unit-IU) was used to probe if CCcompound1 indeed can enhance the effect of insulin on blood glucose. Again C57/BL/6 female mice weighing 22-23-g and fasted for 14 hours prior to i.p. glucose administration (3-g/kg), were used. None of the animals received any food during the experiment other than glucose. The animals received i.p. injections of 4.5-mg/kg of CCcompound1 and/or 0.02 Unit insulin 60 min and 15 min prior to glucose administration, respectively. Blood samples were taken and glucose concentrations measured as indicated earlier. Each group included six animals. The data are the mean±std. dev. of 6 determinations, i.e. one determination with each of the six animals.

In experiment [2] the test system is BDF1 (C57/BL/6 female×DBA/2 male) mice. Briefly: Glucose tolerance test with BDF1 mice, CCcompound1 and sub-optimal insulin. The following applies: CCcompound1 4.5-mg/kg i.p. −15 min and/or insulin 0.02 IU −10 min. How it is done: In this experiment again, a sub-optimal dose of insulin was used to probe if CCcompound1 can enhance the effect of insulin on blood glucose. This time first generation hybrid BDF1 (C57/BL/6 female×DBA/2 male) adult (10-12 weeks old) male mice weighing 28-30-g and fasted for 14 hours before i.p. glucose administration (3-g/kg) were used. These mice were […] than mice in the previous experiment described under Example 5. None of the animals received any food during the experiment other than glucose. The animals received i.p. injections of 4.5-mg/kg of CCcompound1 and 0.02 IU of insulin 15 min and 10 min prior to glucose administration. Blood samples were taken and glucose concentrations in whole blood samples determined as described earlier. Each group included six animals. The data are the mean±std. dev. of 6 determinations, i.e. one determination with each of the six animals.

Experiment [3] concerns ob/ob mice. As to the kind of experiment: Blood glucose level of normally fed ob/ob obese diabetic mice, daily treatment. The following applies: 4.5-mg/kg s.c. once daily. From the text: Adult female leptin-deficient ob/ob obese diabetic inbred specified pathogen free (SPF) hygienic category mice from Charles River VRF1 were used for these experiments. The mice weighed 32-36-g at arrival. The ob/ob obese mouse is an extensively used animal model for the study of non-insulin-dependent-diabetes mellitus (NIDDM). The mutation was propagated in the C57BL/6J (BL/6) inbred strain. Homozygous obese (ob/ob) animals developed hyperglycemia due to insulin resistance, hyperinsulinemia (to compensate for reduced insulin action), and obesity. In these animals gluconeogenesis is enhanced despite their hyperinsulinemic state. The animals were kept in macrolon cages at 22-24° C. and 50-60% humidity, with lighting regimen of 12/12 h light dark. They had free access to tap water and were fed a sterilized standard diet (Charles River VRF1, autoclavable). The animals were cared for according to the “Guiding Principles for the Care and Use for Animals” based upon the Helsinki declaration. The ob/ob mice gained weight rapidly and developed a marked obesity by 5-6 weeks of age. […] When arrived they were 5 weeks old (when the experiment was performed with CCcompound1) or 4.5 weeks old (when the experiment was performed with CCcompound3 and CCcompound19). The treatments started 8 days later in the experiment performed with CCcompound1 and 10 days later in the experiment performed with CCcompound3 and CCcompound19. Experimental groups selected from ob/ob mice were injected subcutaneously (s.c.) at regular intervals once daily for 14 days with CCcompound1 or an analog (CCcompound3 or CCcompound19) each at the dose of 4.5-mg per kg. Control groups were also selected from ob/ob mice that remained untreated during the entire length of the experiment. In the first experiment, for which the data is presented in TABLE 11, blood samples were taken either 45 min or 6 hours after treatments with CCcompound1. In the second experiment, for which the data is presented in TABLE 12, blood samples were taken 45 min after treatments with the analogs of CCcompound1. Blood glucose was determined with the Fast Glucose C test. Both the untreated and CC compound-treated groups included 5 animals. The data are the mean±std. dev.

As to `Cc1c(OCC(O)C[N+](C)(C)C)cc2c(=O)c3ccccc3sc2c1C.[Cl-]` (centres unmarked) [CCcompound 1, [3-(3,4-Dimethyl-9-oxo-9H-thioxanthen-2-yloxy)-2-hydroxypropyl]trimethyl-ammonium chloride], the Blood glucose in experiment [1] (0 min) turned out to be 1.8 ± 0.4 mM; in experiment [1] (30 min), 5.1 ± 0.5 mM; in experiment [1] (60 min) it was 4.1 ± 0.4 mM; in experiment [1] (120 min), 3.3 ± 0.3 mM; in experiment [2] (0 min) it was 3.1 ± 0.2 mM; in experiment [2] (30 min) it was 4.8 ± 0.3 mM. Moreover, the Blood glucose in experiment [2] (60 min) stood at 3.5 ± 0.2 mM. Also, the Glucose level in experiment [3] (45 min after treatment, day 1) was 6.2 ± 0.4 mM; in experiment [3] (45 min after treatment, day 4), 7.4 ± 0.3 mM; in experiment [3] (45 min after treatment, day 7) it was 8.4 ± 0.2 mM; in experiment [3] (45 min after treatment, day 11), 9.2 ± 0.3 mM; in experiment [3] (45 min after treatment, day 14) it was 10.2 ± 0.3 mM; in experiment [3] (6 hours after treatment, day 4), 11.3 ± 0.7 mM. Also, the Glucose level was determined as 13.8 ± 0.4 mM in experiment [3] (6 hours after treatment, day 7); 15.7 ± 0.4 mM in experiment [3] (6 hours after treatment, day 11); 17.5 ± 0.4 mM in experiment [3] (6 hours after treatment, day 14); 9.3 ± 0.4 mM in experiment [3] (blood 6 hours after treatment, day 1).
